Source: a melting point compilation (Tetko et al.; mined from patent text by program, amines drawn as free bases though some values may be those of a salt)
Residues, ends and D or L forms follow the SMILES beside them. *: point of attachment. Tos = Cc1ccc(S(=O)(=O)*)cc1

Work on Cn1c(C(F)(F)F)cc(=O)n(-c2cc(OC3CCCC3)c(Cl)cc2F)c1=O yielded a melting point of 118 to 120 °C. Work on CCNC(=O)N(C)C1c2ccccc2Oc2ccccc21 yielded a melting point of 139 to 141 °C. With CCCCOc1cc(CCS(=O)(=O)NC(=O)OCCC)n(Cc2ccc(Cl)cc2Cl)n1 the melting point was 92 to 94 °C. Work on COc1ccc(Nc2nc(-c3cccc(C(=O)Nc4ccc(C(=O)OCc5ccccc5)cc4)c3)cn3ccnc23)cc1OC yielded a melting point of 154 to 160 °C. With CS(=O)(=O)N(c1cccc(C(=O)NCc2nc[nH]n2)c1)C1CN(C(c2ccc(Cl)cc2)c2ccc(Cl)cc2)C1 the melting point was 210 °C. In the case of CCCCC(CC(=O)Nc1cc(C(N)=O)ccc1C(C)(C)C)c1ccc(OC)cc1OC (stereo unspecified), the melting point is reported as 186 to 188 °C. CC12CCC(O)CC1CCC1C2CCC2(C)C(C(=O)CSc3ccncc3)CCC12 (stereo unspecified) showed a melting point of 154 to 156 °C. Work on CCCc1cc(=O)oc2cc(O)c3c(c12)OC(C)(C)C=C3 yielded a melting point of 190 to 192 °C. O=c1[nH]c2cc(Cl)ccc2cc1-c1ccc(O)cc1 gave a melting point of 262 °C. With CC(=O)OCC1OC(n2cc(C3=C(c4c[nH]c5ncccc45)C(=O)N(COCc4ccccc4)C3=O)c3cccnc32)C(OC(C)=O)C(OC(C)=O)C1OC(C)=O (stereo unspecified) the melting point was 127 to 129 °C. In the case of O=[N+]([O-])c1ccc(S(=O)(=O)CCCl)cc1, the melting point is reported as 130 °C. COC(=O)C(C)Oc1ccc(Oc2cnc3ccccc3n2)cc1 (stereo unspecified) gave a melting point of 110 to 115 °C. With Cc1ccc(S(=O)(=O)N2CCC[C@H]2C(=O)N[C@@H](CCC(N)=O)C(=O)O)cc1 (Tos-Pro-Gln-OH) the melting point was 45 to 55 °C. Compound CC(C)NC1=NS(=O)(=O)c2cc(Cl)sc2N1 has a melting point of 272 to 274 °C. Compound Oc1cccc2c1CCC(O)C2 (stereo unspecified) has a melting point of 126 to 128 °C. CCCCCCCCCCCCCCCCSCC(CNS(=O)(=O)CCCCl)OC(=O)NC (stereo unspecified) gave a melting point of 84.5 to 85.5 °C. Compound C#CCOCc1c(C)nc2c(OCc3ccccc3OC)cccn12 has a melting point of 107 to 108 °C. Cc1cc(CC(=O)O)n(C)c1C(=O)c1ccc(F)cc1 showed a melting point of 176 to 178 °C. In the case of c1ccc(COc2ccc(-c3cc(NC(Cc4ccccc4)c4nnn[nH]4)ncn3)cc2)cc1 (stereo unspecified), the melting point is reported as 150 °C. CN(O)C(=O)Nc1ccc([N+](=O)[O-])c(C(F)(F)F)c1 gave a melting point of 129 to 130 °C. In the case of Cc1cc(-c2ccc(F)cc2)c(C=CC=O)o1, the melting point is reported as 89 to 90 °C. O=c1c(-c2nnn[nH]2)cnc2c(Cl)cccn12 showed a melting point of 313 to 315 °C. In the case of O=C(O)CCNc1ccc2c(C(=O)NCC34CC5CC(CC(C5)C3)C4)c(Cl)ccc2n1, the melting point is reported as 251 to 252 °C. Work on Cc1ccc(N2C(=O)N(CC(=O)Nc3c(C(C)C)cccc3C(C)C)C(=O)C23CCC(O)CC3)cc1 (stereo unspecified) yielded a melting point of 142 to 144 °C. Work on O=C(O)Cn1ccn(C2CCc3ccccc3C2)c1=S (stereo unspecified) yielded a melting point of 228 to 230 °C. Compound O=C(Nc1ccc(-c2cnc(-c3ccc(NC(=O)C4CCCCCC4)cc3)[nH]2)cc1)c1cccnc1 has a melting point of 256 to 258 °C. In the case of CC(C)(C)CN1C(=O)[C@H](CC(=O)O)O[C@@H](c2ccccc2Cl)c2cc(Cl)ccc21, the melting point is reported as 241 to 245 °C. Cc1nc2c(N)nc3ccccc3c2n1CCCOCCCc1ccccc1 showed a melting point of 145 to 146 °C. Work on CCCC(=O)N[C@H]1CC[C@H](CCN2CCN(c3nccc4c3OCC4)CC2)CC1 yielded a melting point of 183 °C. In the case of NS(=O)(=O)c1ccc(NC(=O)CCl)cc1Cl, the melting point is reported as 214 to 216 °C. C=CCc1c(OCc2ccc3ccccc3n2)ccc2c1c(SC(C)(C)C)c(CC(C)(C)C(=O)O)n2Cc1ccc(Cl)cc1 showed a melting point of 103 to 105 °C. Work on CN(C)CC(=O)N1CCN(Cc2ccc3c(c2)Cc2c(-c4ccsc4)n[nH]c2-3)CC1 yielded a melting point of 190 to 192 °C. With CC1(C)CC(Nc2nc(NC3CC(C)(C)N(O)C(C)(C)C3)nc(N(C3CC(C)(C)N(O)C(C)(C)C3)C3CC(C)(C)N(O)C(C)(C)C3)n2)CC(C)(C)N1O the melting point was 243 to 246 °C. CCCc1c(SCCCOc2ccc(C(C)O)c(OCCCC(=O)O)c2CCC)ccc(C(C)=O)c1O (stereo unspecified) showed a melting point of 85 to 86 °C. Work on O=C(C1CC1)N1CCCC1Cc1ccc(Cl)cc1 (stereo unspecified) yielded a melting point of 62 to 64 °C. C=CCOc1cc(C(=O)O)cc(C(=O)N(C)C)c1 showed a melting point of 93 to 95 °C. Compound CC(=O)OCCCCc1c(C)[nH]c(C(=O)OC(C)(C)C)c1C has a melting point of 62 °C. CC(C)(O)c1onc(-c2ccccc2Cl)c1C(=O)c1nnn(Cc2cc(C(F)(F)F)cc(C(F)(F)F)c2)c1-c1cccnc1 gave a melting point of 105 °C. Work on O=c1c2ccccc2sn1-c1ccccc1 yielded a melting point of 140 to 141 °C. Work on CC(C)c1nc2c([nH]1)c(=S)[nH]c(=O)n2-c1cccc(Cl)c1 yielded a melting point of 290 to 293 °C. For Cc1ccc(-c2nc(Cl)cc(N3CCN(CCO)CC3)n2)cc1, the melting point was 104 °C. Cc1cc(C#N)ccc1-c1ccc(O)cc1 gave a melting point of 136 to 138 °C. CC(CCC(=O)O)CC(C)CC(C)C(=O)C=C(O)C(C)CC(C)CC=CC(C)C(O)C(C)C(O)CC1CCC(C)(C2CCC(C)(C(C)O)O2)O1 (stereo unspecified) showed a melting point of 203 °C. Compound O=C1c2ccccc2COc2ccc(CC(=O)N(O)C3CCCCC3)cc21 has a melting point of 130 to 131 °C. For CC(C)(C)NCC(O)c1cc(O)ccc1Cl (stereo unspecified), the melting point was 162 to 163 °C. Nc1nc(-c2ccc(F)cc2)c(CCN2CCC(n3nnc4cc(F)ccc43)CC2)s1 gave a melting point of 234 to 235 °C. In the case of N#Cc1cccnc1NCc1nc2ccc(F)cc2c(=O)n1-c1ccccc1Cl, the melting point is reported as 145 to 150 °C. CCOC(=O)c1c(C)n(C(=O)c2ccccc2)c2ccc(Oc3nc(OC)cc(OC)n3)c(C(=O)OCc3ccccc3)c12 gave a melting point of 128 to 132 °C. In the case of Cc1nn(C2CCCC2C)c(N)c1C(N)=O (stereo unspecified), the melting point is reported as 124 to 126 °C. For CC(=O)Oc1ccc(-c2ccc(CO)cc2S(=O)CC[Si](C)(C)C)cc1C (stereo unspecified), the melting point was 132 to 134 °C. Work on O=C(O)C(Cc1ccc(OCCn2c(-c3ccccc3)nc3ccccc32)cc1)n1cccc1 (stereo unspecified) yielded a melting point of 210 to 212 °C. Work on Cc1cnc2c(NC(=O)c3ccccc3C(F)(F)F)cccc2c1N1CCN(C)C1=O yielded a melting point of 182 to 191 °C. Work on CCCCNc1c([N+](=O)[O-])cc(C(=O)O)cc1S(N)(=O)=O yielded a melting point of 192 °C. CCN1c2ncc(CC(F)c3ccncc3)cc2C(=O)N(C)c2ccc(Cl)nc21 (stereo unspecified) gave a melting point of 180 °C. CCc1ccccc1-c1cccc2[nH]c(C(=O)O)cc12 showed a melting point of 230 to 233 °C. CC1=NC(NC(=O)Nc2cccc(C)c2)C(=O)N(CC(=O)c2ccccc2C)c2c(C)cccc21 (stereo unspecified) showed a melting point of 128 to 136 °C. Compound CN1C(=O)C2C3CCC(C2C1=O)N1COc2ccccc2N=C31 (stereo unspecified) has a melting point of 222 to 224 °C. Compound CCN(CC)C(=O)Oc1cc(C(C)C)ccc1C1(O)C(=O)c2ccccc2C1=O has a melting point of 103 to 106 °C. For COc1cc(-c2nc(C)nn2C)cc2oc(=O)c(C)c(C)c12, the melting point was 180 °C. Compound CCCCc1nc(=O)c2cc(C(O)c3ccco3)ccc2[nH]1 (stereo unspecified) has a melting point of 183 to 185 °C. In the case of O=C(Cc1cccc2ccccc12)N1CCC(c2nccc3occc23)CC1, the melting point is reported as 50 °C. For CCOC(=O)C1=Cc2cc(Br)ccc2SC1, the melting point was 87 °C. In the case of Oc1cc2onc(C3CCCCC3)c2cc1O, the melting point is reported as 177 °C. Compound CNCCOc1ccc(C2=C(c3ccccc3)CCCc3cc(OC4CCCCO4)ccc32)cc1 (stereo unspecified) has a melting point of 133 to 137 °C. Cc1ccccc1-c1nsc(S(=O)(=O)N=CN2CCOCC2)n1 showed a melting point of 151 to 153 °C. N#CCCN1CCN(C(c2ccccc2)c2ccccn2)CC1 (stereo unspecified) gave a melting point of 114 to 116 °C. Cc1c(C(=O)Nc2ccc(N3CCNCC3)c(C#N)c2)cnn1-c1ccc(Cl)cc1 gave a melting point of 184 °C. Cc1nc(O)n(COCc2ccccc2)c1Sc1ccccc1 gave a melting point of 147 to 148 °C. In the case of O=C1c2ccccc2C(=O)N1C[C@H]1CN2C(=O)C[C@@H]2O1 (racemic), the melting point is reported as 137 to 138 °C. In the case of Cc1cc(Nc2ccc(C(=O)O)cc2)c2[nH]ncc2n1, the melting point is reported as 238 to 241 °C. Work on c1cc2ccc3nnsc3c2cn1 yielded a melting point of 150 to 153 °C. Work on CCCn1cc(-c2ccccc2)c(=O)c(-c2ccccc2)n1 yielded a melting point of 94 to 96 °C. With COC(=O)Cc1cn(-c2ccccc2)nc1OCc1ccc(OCc2nc(-c3ccccc3)oc2C)cc1 the melting point was 113 to 114 °C. For O=S1(=O)CCN2C=CC(Cl)=C(c3ccc(Oc4ccccc4)cc3)C2=N1, the melting point was 283 to 284 °C. With CCOC(=O)C1(C(=O)OCC)C(CC)CC(O)N1C(C)=O (stereo unspecified) the melting point was 106 to 109 °C. CNc1cc(NS(=O)(=O)c2ccc(Cl)cc2)nc(NC)n1 showed a melting point of 272 to 273 °C. CCOC(=O)c1c[nH]c(=O)c2cc(Cl)ccc12 showed a melting point of 243 °C. With COc1cc(C(=N)NO)ccc1-c1cc(-c2ccc(C(=N)NO)cc2OC)on1 the melting point was 203 to 204 °C. Work on CC(=O)OCc1nnc2n1-c1sc(Cl)cc1C(c1ccccc1Cl)=NC2 yielded a melting point of 191 to 193 °C. CN(C)c1ccc(C2(c3ccc(N(C)C)cc3N(C)C)OC(=O)c3ccc(N(C)C)cc32)c(N(C)C)c1 gave a melting point of 188 to 192 °C. Cc1ccc(Sc2c(SCc3ccccc3)cc(C(=O)O)cc2S(N)(=O)=O)cc1 showed a melting point of 250 to 251 °C. With NN=C(N)Nc1c(Cl)cccc1Cl the melting point was 281 °C. OCc1c[nH]c(=S)n1[C@H]1CCc2c(F)cc(F)cc2C1 gave a melting point of 206 to 207 °C. Compound CCOCC(=O)Nc1ccc(OC(=O)NC)cc1C has a melting point of 118 to 121 °C. For CCOC(=O)c1ccc(-c2nc(COc3ccc(CCl)cc3OCC)c(C)o2)s1, the melting point was 157 to 158 °C. O=C(c1cc(Br)ccc1[N+](=O)[O-])C(Br)C(Br)c1ccc(Br)cc1 (stereo unspecified) showed a melting point of 200 to 201 °C. With Cc1nc(C(F)F)c(C(=O)Nc2ccccc2-c2ccc(Cl)cc2)s1 the melting point was 144 °C. Compound CCOC(=O)COn1ccncc1=O has a melting point of 98 to 100 °C. In the case of CCc1ccc2c(c1)C(c1ccccc1F)=NCc1cnc(C)n1-2, the melting point is reported as 152 to 154 °C. O=C1c2ccccc2C(OCC2CO2)N1c1ccccc1 (stereo unspecified) gave a melting point of 76 °C. For CC1(C)CCC(C)(C)c2cc(C(O)COc3ccc(CO)c(O)c3)ccc21 (stereo unspecified), the melting point was 110 to 115 °C. In the case of CCCCCCCCCCCCCCCCCNC(=O)O[C@@H]1CCO[C@H]1COCc1ccccc1 (relative stereo), the melting point is reported as 54 to 56 °C. In the case of CSc1ccc(C(=O)c2cc(-c3ccccc3)c(N3CCOCC3)s2)cc1, the melting point is reported as 165 °C. O=C(O)Cc1ccc2c(c1)C(=O)c1ccccc1CS2 gave a melting point of 96 to 97 °C. CCCN(c1nc(-c2ccc(OC)cc2Cl)c(C)s1)c1cc(C(C)=O)ccc1OC showed a melting point of 50 °C. COCc1cnc2c(N)cc(C)cc2c1Cl showed a melting point of 135 to 138 °C.
